Test results reported in PubChem BioAssay (NCI).
Values joined by “and” are separate entries in the source; they are usually repeats but may differ in a detail not shown here. Equal values may be shown once.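 Growth conditions: 96-well plates. Treatment: test compound, 48 hours, 5 concentrations. Analysis: linear interpolation between bracketing concentrations; unreached endpoints set to highest concentration. GI50 is the concentration that inhibits growth by half. The concentration for full growth arrest is given as TGI.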

What was measured:
Test in all cases: growth of human tumour cells (NCI), 48 h
LOX IMVI melanoma = test system: LOX IMVI melanoma
UACC-257 melanoma = test system: UACC-257 melanoma
SF-295 CNS = test system: SF-295 CNS
SF-539 CNS = test system: SF-539 CNS
HOP-92 NSCLC = test system: HOP-92 NSCLC
MOLT-4 leukemia = test system: MOLT-4 leukemia
TK-10 renal = test system: TK-10 renal
786-0 renal = test system: 786-0 renal
OVCAR-8 ovarian = test system: OVCAR-8 ovarian
U251 CNS = test system: U251 CNS

SMILES | TGI (LOX IMVI melanoma) | TGI (UACC-257 melanoma) | TGI (SF-295 CNS) | TGI (SF-539 CNS) [µM] | TGI (HOP-92 NSCLC) | TGI (MOLT-4 leukemia) | TGI (TK-10 renal) | TGI (786-0 renal) | TGI (OVCAR-8 ovarian) [µM] | TGI (U251 CNS) [µM] | GI50 (TK-10 renal) [µM]
CC(C)c1cccc(C(C)C)c1NC(=O)C(=O)Cc1nc2ccc([N+](=O)[O-])cc2[nH]c1=O | > 100 µM | > 100 µM | > 100 µM | > 100 | > 100 µM | > 100 µM | > 100 µM | > 100 µM | – | – | –
COC(=O)C1CC2C=CC=CC(=O)C2(C)C1 (stereo not given) | > 100 µM | > 100 µM | > 100 µM | > 100 | – | > 100 µM | > 100 µM | > 100 µM | > 100 | > 100 | –
CCNC(=O)C(C)C1CCC2(C)C=CC(=O)C(C)=C2C1O (stereo not given) | > 100 µM | > 100 µM | > 100 µM | > 100 | > 100 µM | > 100 µM | – | – | > 100 | > 100 | –
OCC#CCNCl | > 100 µM | > 100 µM | > 100 µM | > 100 | > 100 µM | > 100 µM | – | – | > 100 | > 100 | –
C/C(=C/C(=O)Nc1ccccc1)Nc1onc(C)c1C | > 100 µM | > 100 µM | > 100 µM | > 100 | > 100 µM | > 100 µM | – | – | > 100 | > 100 | –
Cc1cc2ncn(-c3nc4ccccc4nc3C(C#N)S(C)(=O)=O)c2cc1C (stereo not given) | > 100 µM | > 100 µM | – | > 100 | – | > 100 µM | > 100 µM | > 100 µM | > 100 | > 100 | –
S=c1sc2c(s1)SC(c1ccccc1)CS2 (stereo not given) | > 100 µM | > 100 µM | > 100 µM | > 100 | > 100 µM | > 100 µM | – | – | > 100 | > 100 | –
N#CC(NNC(=O)Cc1ccccc1)c1cccc(O)c1 (stereo not given) | > 100 µM | > 100 µM | > 100 µM | > 100 | > 100 µM | > 100 µM | > 100 µM | > 100 µM | > 100 | > 100 | –
CC1=NN(c2nc(N)nc(NS(=O)(=O)c3cc(C)c(Cl)cc3S)n2)C(C)(C)C1 | > 10 µM | > 10 µM | > 10 µM | > 10 | > 10 µM | > 10 µM | > 10 µM | > 10 µM | > 10 | > 10 | –
CC1=C(c2nc3ccccc3s2)C(=O)OC1(C)C | > 100 µM | > 100 µM | > 100 µM | > 100 | – | > 100 µM | – | > 100 µM | > 100 | > 100 | –
CCCCCCCC/C=C1\CCC(CN(C)C)C1=O (stereo not given) | 4.09 µM | 16.8 µM | 18 µM | 9.32 | 8.02 µM | 10.1 µM | 6.03 µM | 2.88 µM | 9.67 | 4.38 | –
O=S(O)CCCCCSSc1ccccc1 | 38.4 µM | > 100 µM | – | 62.6 | – | 34.2 µM | > 100 µM | – | – | 94.1 | –
Cc1c(O)c(=O)ccn1CCN | > 100 µM | > 100 µM | – | – | > 100 µM | > 100 µM | > 100 µM | > 100 µM | > 100 | > 100 | –
CN(C)CCNc1ccc2ncn3c4ccccc4c(=O)c1c23 | 2.92 µM | 11.5 µM | 13.4 µM | 16.9 | 9.51 µM | > 100 µM | 46.7 µM | 13.9 µM | 10.7 | 15.8 | –
N#C/C(=C\c1ccncc1)c1csc2ccccc12 | 47.9 µM | > 75.3 µM | > 100 µM | 48.9 | 51.7 µM | 43.1 µM | – | – | > 85.1 | 61.9 | –
O=NN1C(c2ccccc2)CNC(=O)CC1c1ccccc1 (stereo not given) | > 100 µM | > 100 µM | 98.8 µM | 96.1 | > 100 µM | > 93 µM | – | – | > 100 | > 100 | –
COc1cc2c(c(OC)c1OC)-c1ccc(SC)c(=O)cc1[C@@H](NCc1ccc(F)cc1)CC2 | 11.9 µM and 13.5 µM | 44.1 µM and 55.7 µM | 22 µM and > 100 µM | – | 75 µM and 7.99 µM | 75 µM and > 100 µM | 75 µM and > 100 µM | 16.8 µM and 25 µM | 75 | – | 0.182
CC1=CC2C(C=C1)S(=O)(=O)N1CC21c1ccccc1 (stereo not given) | > 100 µM | > 100 µM | > 100 µM | > 100 | > 100 µM | – | > 100 µM | > 100 µM | > 100 | > 100 | –
O=C(Cc1ccccc1)NN1C(=O)C(Cl)C1c1ccccc1Cl (stereo not given) | > 59.5 µM | > 100 µM | > 100 µM | > 100 | > 100 µM | 62.8 µM | > 100 µM | > 100 µM | > 100 | > 100 | –
O=Cc1c[nH]c2c(=O)[nH]cnc12 | > 100 µM | > 100 µM | > 100 µM | – | > 100 µM | > 100 µM | > 100 µM | > 100 µM | > 100 | – | –
FC(F)(F)c1ccc2c(c1)N(CCCNCCN1CCOCC1)c1ccccc1S2 | 21.2 µM | 23.3 µM | 27.4 µM | 16.9 | 11.2 µM | 20.1 µM | 25.4 µM | – | 32.8 | 23.7 | –
